The results in this text go back to patent US3968233A, “α-Amino-γ-butyrolactones as sedatives” (priority 1975, dated 1976).

A short description of series [1]: Clinical trial, 2nd group: strain and anxiety. In kind it is in vivo, human. The following applies: 500 to 1500 mg/day. The method, then:
Clinical trials were performed on three groups of patients, partly hospitalized patients and partly outpatients. It was determined that the effect observed in the experimental pharmacological studies were useful in the treatment of humans as well.
The dose levels used with these patients varied between 500 and 1500 mg/day, divided into two or three doses which were given during the day.

The nature of series [2]: Time to death by slow intravenous infusion of strychnine. In kind it is in vivo, mouse. The following applies: for mean infusion time to cause animals to die: strychnine infusion 0.25 ml/min. The method, then:
(3) continuous intravenous infusion at constant rate (0.4 ml/min) of a strychnine sulfate solution (26.66 mg/l) was carried out by injection through a tail vein into mice until they died. One group of animals received 500 mg/kg of AP-28 as preliminary treatment 15 minutes prior to the beginning of infusion. The mean infusion time to cause six control animals to die was 134 ± 3.2 seconds (mean ± SE). The mean infusion time required to obtain the same effect in animals pretreated with AP-28 was 210 ± 6.1 seconds.
In another experiment the infusion rate of strychnine was lowered to 0.25 ml/min. Under this condition, the mean infusion time was 246 ± 3.1 seconds in the case of controls (six animals) and 338 ± 24.3 seconds in that of treated animals.
When the same infusion rate as above was maintained and the amount of AP-28 was reduced to 250 mg/kg, the mean infusion time was 260 ± 13.4 seconds with control animals and 360 ± 21.2 seconds with treated animals.

Series [3] is described as follows: Arterial blood pressure. In kind it is in vivo. The note with it: single 500 mg/kg oral dose. The protocol:
The effect of a single 500 mg/kg oral dose of AP-28 was determined on (a) diuresis in water-loaded rats, (b) choleresis, (c) the excretion rate of intravenously-injected bromosulfonphthalein in bile, (d) arterial blood pressure.

Series [4] can be described thus: Spontaneous mobility (light beam interruptions). In kind it is in vivo, mouse. The protocol:
Several groups of four mice each were placed in an apparatus designed to provide a measure of spontaneous mobility by counting the number of interruptions of a light beam for a period of 10 minutes. After preliminary measurement of mobility, animals were injected with AP-28 (250 and 500 mg/kg) intraperitoneally. Control animals received saline solution. Ten minutes thereafter the measurement of mobility was repeated. Five groups of mice were used as controls and six other groups were treated with varying doses of AP-28.

Entries after “also recorded” stand apart in the source; their conditions may differ.

Turning to `CCCCOC(=O)NC1CCOC1=O` (stereo not drawn) [AP-28, α-n-butoxycarbonyl-amino-γ-butyrolactone], the “somnolence, daily torpor or motive conceptual slowness” value in series [1] is recorded as “in no case somnolence, daily torpor or motive conceptual slowness were observed; also recorded: without causing daily drowsiness or torpor”. Also, in series [1] (outpatients), the “disorders or difficulty in usual working activity” value is on record as “No outpatient reported disorders or difficulty in carrying out their usual working activity”. Further, the “mean infusion time to cause animals to die” value in series [2] (AP-28 250 mg/kg, control 260 ± 13.4) was 360 ± 21.2 s; in series [2] (AP-28 500 mg/kg, control 246 ± 3.1) it was 338 ± 24.3 s. In addition, the “mean infusion time to cause animals to die (mean ± SE)” value in series [2] (AP-28 500 mg/kg, 15 minutes prior, strychnine infusion 0.4 ml/min, control 134 ± 3.2) came to 210 ± 6.1 s. Moreover, the arterial blood pressure entry in series [3] is given as “No treatment caused any significant change”. Besides, the “Percent reduction at 2nd measurement” value is 68.1% in series [4] (250 mg/kg i.p.) and 76.9% in series [4] (500 mg/kg i.p.). Further, the “mobility, percent of the baseline values” in series [4] (250 mg/kg i.p.) was 31.9%; in series [4] (500 mg/kg i.p.) it was 23.1%. Besides, the “Mean number of crossings (± SE)” value in series [4] (after treatment, 250 mg/kg i.p.) is on record as 84.1 ± 15; in series [4] (after treatment, 500 mg/kg i.p.), 50.5 ± 5; in series [4] (before treatment, 250 mg/kg i.p. group), 261.5 ± 25; in series [4] (before treatment, 500 mg/kg i.p. group), 229 ± 15.
